In US20110263454A1, “Methods of Identifying Functional Characteristics of Promoters, Transcription Modifying Proteins and Transcription Modulating Agents” (Salk Institute for Biological Studies, priority 2008, published 2011):

Key:
mCAR promoter = test: NHR-promoter luciferase screen, mCAR promoter; type: cell-based, mouse; settings: for luciferase activity normalized to lacZ activity and to a control, mCAR: mCAR promoter-luciferase, CV-1 cells, NHR +/- ligand, control = 1.00; for Luc. act., normalized to lacZ / Normalized Luc. act., normalized to control: mCAR promoter, HR/ligand component
Experimental: (§1) The use, feasibility, and reproducibility of the functional NHR-promoter screen in a 48-well format have been tested validated. Briefly, there were co-expressed 50 ng of each NHR/NHR homodimer or NHR/RXR heterodimer with 100 ng promoter/luciferase construct and 50 ng of LacZ (as a control for transfection efficiency) in CV-1 cells using Fugene HD (Roche) as a transfection reagent (alternatively or additionally, a CMV-YFP construct can be used as a transfection control). Each of the nuclear hormone receptors that were used in these experiments was cloned into a pcDNA3.1 vector and comprised a C-terminally linked V5H6 tag. Twenty-four hours after transfection, appropriate ligands were added, where applicable, (see Table 5 for various ligands and concentrations and after 48 hrs, samples were assayed for luciferase and LacZ activity. To measure for luciferase activity 15 ul of sample was added to 30 ul of luciferase buffer (20 mM tricine, 1.07 mM MgCarbonate, 2.67 mM MgSulfate, 0.1 mM Naz-EDTA, 5 mM DTT, 5 mM ATP, 0.15 mg/ml CoA, 0.5 mM Luciferin), mixed briefly, and run in a Perkin Elmer Victor 5 luminometer. Thus, the functional NHR-promoter screen was used to observe the transcriptional activity of 29 promoters from various physiological pathways including inflammation, lipid and sugar metabolism, cholesterol transport, xenobiotic metabolism, and circadian rhythm.
(§2) The promoters that facilitate transcription of the indicated gene products that were tested using the protocols described herein are listed in the first row of the table. The nuclear hormone receptors and, where applicable, ligands that were assayed for their transcriptional effects on the promoters are listed in the first column of the table. The data represent the luciferase activity of each sample normalized to both the lacZ activity of that sample and to a control, e.g., no NHR or ligand, as customary in the art. As described previously, these normalizations allow the transcriptional activity of each reporter cell to be compared to other samples.
(§3) Tables 7-40 show the transcriptional effects of the hormone receptors, and, where applicable, ligands (orphan receptors are screened without ligand), on each individual promoter. […] The control data of each table are shown in their last rows.

mUCP2 promoter = test: NHR-promoter luciferase screen, mUCP2 promoter; type: cell-based, mouse; settings: for Luc. act., normalized to lacZ / Normalized Luc. act., normalized to control: mUCP2 promoter reporter, co-transfected HR, with or without its ligand; for Normalized Luc. act., normalized to control: relative to control; for luciferase activity normalized to lacZ activity and to a control, mUCP2: mUCP2 promoter-luciferase, CV-1 cells, NHR +/- ligand, control = 1.00
Experimental: as §1, §2, §3

mLeptin promoter = test: NHR-promoter luciferase screen, mLeptin promoter; type: cell-based, mouse; settings: for Luc. act., normalized to lacZ / Normalized Luc. act., normalized to control: Table 7, mLeptin; for Results of assays of transcription factor (+/- ligand) with mLeptin: Table 6d, luciferase activity relative to control (control = 1.00)
Experimental: as §1, §2, §3

hCYP3A4 promoter = test: NHR-promoter luciferase screen, hCYP3A4 promoter; type: cell-based, human; settings: for Luc. act., normalized to lacZ / Normalized Luc. act., normalized to control: CYP3A4 promoter, HR/ligand component; for hCYP3A4 promoter reporter activity: transcription factor +/- ligand, control = 1.00
Experimental: Briefly, there were co-expressed 50 ng of each NHR/NHR homodimer or NHR/RXR heterodimer with 100 ng promoter/luciferase construct and 50 ng of LacZ (as a control for transfection efficiency) in CV-1 cells using Fugene HD (Roche) as a transfection reagent (alternatively or additionally, a CMV-YFP construct can be used as a transfection control). Each of the nuclear hormone receptors that were used in these experiments was cloned into a pcDNA3.1 vector and comprised a C-terminally linked V5H6 tag.
as §2, §3

hIFNg promoter = test: NHR-promoter luciferase screen, hIFNg promoter; type: cell-based, human; settings: for Luc. act., normalized to lacZ / Normalized Luc. act., normalized to control: IFNg promoter, HR component without or with ligand; for hIFNg promoter reporter activity: transcription factor +/- ligand, control = 1.00
Experimental: as §1, §2, §3

hPPARg1 promoter = test: NHR-promoter luciferase screen, hPPARg1 promoter; type: cell-based, human; settings: for Luc. act., normalized to lacZ / Normalized Luc. act., normalized to control: PPARG1 promoter, hormone receptor with or without its ligand; for Normalized Luc. act., normalized to control: relative to control; for Results of assays of transcription factor (+/- ligand) with hPPARg1: Table 6d, luciferase activity relative to control (control = 1.00)
Experimental: as §1, §2, §3

## SF-1: Steroidogenic Factor 1 (NR5A1, SF1), cDNA driver
mCAR promoter
  luciferase activity normalized to lacZ activity and to a control, mCAR: 2.43
  Luc. act., normalized to lacZ: 92.6
  Normalized Luc. act., normalized to control: 2.4
mUCP2 promoter
  Luc. act., normalized to lacZ: 449.3
  Normalized Luc. act., normalized to control: 4.1
  luciferase activity normalized to lacZ activity and to a control, mUCP2: 4.09
mLeptin promoter
  Luc. act., normalized to lacZ: 4.7
  Normalized Luc. act., normalized to control: 1.6
  Results of assays of transcription factor (+/- ligand) with mLeptin: 1.60
hCYP3A4 promoter
  Luc. act., normalized to lacZ: 10.6
  Normalized Luc. act., normalized to control: 2.4
  hCYP3A4 promoter reporter activity: 2.39
hIFNg promoter
  Luc. act., normalized to lacZ: 46.3
  Normalized Luc. act., normalized to control: 2.9
  hIFNg promoter reporter activity: 2.91
hPPARg1 promoter
  Luc. act., normalized to lacZ: 124.1
  Normalized Luc. act., normalized to control: 1.8
  Results of assays of transcription factor (+/- ligand) with hPPARg1: 1.80

## PPARa: Peroxisome proliferator activated receptor α (NR1C1), cDNA driver
mCAR promoter
  luciferase activity normalized to lacZ activity and to a control, mCAR: 0.88
  Luc. act., normalized to lacZ: 33.6
  Normalized Luc. act., normalized to control: 0.9
mUCP2 promoter
  Luc. act., normalized to lacZ: 167.3
  Normalized Luc. act., normalized to control: 1.5
  luciferase activity normalized to lacZ activity and to a control, mUCP2: 1.52
mLeptin promoter
  Luc. act., normalized to lacZ: 2.4
  Normalized Luc. act., normalized to control: 0.8
  Results of assays of transcription factor (+/- ligand) with mLeptin: 0.81
hCYP3A4 promoter
  Luc. act., normalized to lacZ: 3.4
  Normalized Luc. act., normalized to control: 0.8
  hCYP3A4 promoter reporter activity: 0.76
hIFNg promoter
  Luc. act., normalized to lacZ: 11.3
  Normalized Luc. act., normalized to control: 0.7
  hIFNg promoter reporter activity: 0.71
hPPARg1 promoter
  Luc. act., normalized to lacZ: 57.6
  Normalized Luc. act., normalized to control: 0.8
  Results of assays of transcription factor (+/- ligand) with hPPARg1: 0.84

## PPARg: Peroxisome proliferator activated receptor γ (NR1C3), cDNA driver
mCAR promoter
  luciferase activity normalized to lacZ activity and to a control, mCAR: 1.25
  Luc. act., normalized to lacZ: 47.7
  Normalized Luc. act., normalized to control: 1.3
mUCP2 promoter
  Luc. act., normalized to lacZ: 171.6
  Normalized Luc. act., normalized to control: 1.6
  luciferase activity normalized to lacZ activity and to a control, mUCP2: 1.56
mLeptin promoter
  Luc. act., normalized to lacZ: 2.9
  Normalized Luc. act., normalized to control: 1.0
  Results of assays of transcription factor (+/- ligand) with mLeptin: 1.00
mLeptin promoter; mLeptin promoter-luciferase, NHR +/- ligand, control = 1.0
  luciferase/LacZ, mLeptin (selected results): 1.0
hCYP3A4 promoter
  Luc. act., normalized to lacZ: 4.7
  Normalized Luc. act., normalized to control: 1.1
  hCYP3A4 promoter reporter activity: 1.06
hIFNg promoter
  Luc. act., normalized to lacZ: 24.04
  Normalized Luc. act., normalized to control: 1.5
  hIFNg promoter reporter activity: 1.51
hPPARg1 promoter
  Luc. act., normalized to lacZ: 75.7
  Normalized Luc. act., normalized to control: 1.1
  Results of assays of transcription factor (+/- ligand) with hPPARg1: 1.10

## ERR1: Estrogen Related Receptor α (NR3B1, ERRa), cDNA driver
mCAR promoter
  luciferase activity normalized to lacZ activity and to a control, mCAR: 1.07
  Luc. act., normalized to lacZ: 40.9
  Normalized Luc. act., normalized to control: 1.1
mUCP2 promoter
  Luc. act., normalized to lacZ: 121.6
  Normalized Luc. act., normalized to control: 1.1
  luciferase activity normalized to lacZ activity and to a control, mUCP2: 1.11
mLeptin promoter
  Luc. act., normalized to lacZ: 2.6
  Normalized Luc. act., normalized to control: 0.9
  Results of assays of transcription factor (+/- ligand) with mLeptin: 0.88
hCYP3A4 promoter
  Luc. act., normalized to lacZ: 4.5
  Normalized Luc. act., normalized to control: 1.0
  hCYP3A4 promoter reporter activity: 1.01
hIFNg promoter
  Luc. act., normalized to lacZ: 18.5
  Normalized Luc. act., normalized to control: 1.2
  hIFNg promoter reporter activity: 1.17
hPPARg1 promoter
  Luc. act., normalized to lacZ: 59.1
  Normalized Luc. act., normalized to control: 0.9
  Results of assays of transcription factor (+/- ligand) with hPPARg1: 0.86

## VDR: Vitamin D Receptor (NR1I1), cDNA driver
mCAR promoter
  luciferase activity normalized to lacZ activity and to a control, mCAR: 0.69
  Luc. act., normalized to lacZ: 26.5
  Normalized Luc. act., normalized to control: 0.7
mUCP2 promoter
  Luc. act., normalized to lacZ: 136.2
  Normalized Luc. act., normalized to control: 1.2
  luciferase activity normalized to lacZ activity and to a control, mUCP2: 1.24
mLeptin promoter
  Luc. act., normalized to lacZ: 2.6
  Normalized Luc. act., normalized to control: 0.9
  Results of assays of transcription factor (+/- ligand) with mLeptin: 0.90
hCYP3A4 promoter
  Luc. act., normalized to lacZ: 5.1
  Normalized Luc. act., normalized to control: 1.2
  hCYP3A4 promoter reporter activity: 1.15
hIFNg promoter
  Luc. act., normalized to lacZ: 16.06
  Normalized Luc. act., normalized to control: 1.0
  hIFNg promoter reporter activity: 1.01
hPPARg1 promoter
  Luc. act., normalized to lacZ: 38.1
  Normalized Luc. act., normalized to control: 0.6
  Results of assays of transcription factor (+/- ligand) with hPPARg1: 0.55
